Test results from patent US9315508B2, “Treating diabetes with dipeptidyl peptidase-IV inhibitors” (Merck Sharp & Dohme Corp., priority 2012, dated 2016).

How the values were obtained:
[1] = target: dipeptidyl peptidase-IV enzyme (DPP-4) (Homo sapiens (Human), UniProt P27487); assay: continuous fluorometric DPP-4 inhibition assay with substrate Gly-Pro-AMC; type: biochemical; settings: soluble human DPP-4, Gly-Pro-AMC substrate
Protocol: Inhibition constants are determined as follows. A continuous fluorometric assay is employed with the substrate Gly-Pro-AMC, which is cleaved by DPP-4 to release the fluorescent AMC leaving group. The kinetic parameters that describe this reaction are as follows: Km=50 μM; kcat=75 s^−1; kcat/Km=1.5×10^6 M^−1s^−1. A typical reaction contains approximately […], 50 μM Gly-Pro-AMC, and buffer (100 mM HEPES, pH 7.5, 0.1 mg/ml BSA) in a total reaction volume of 100 μL. Liberation of AMC is monitored continuously in a 96-well plate fluorometer using an excitation wavelength of 360 nm and an emission wavelength of 460 nm. Under these conditions, approximately 0.8 μM AMC is produced in 30 minutes at 25 degrees C. The enzyme used in these studies was soluble (transmembrane domain and cytoplasmic extension excluded) human protein produced in a baculovirus expression system (Bac-To-Bac, Gibco BRL). […] To measure the dissociation constants for compounds, solutions of inhibitor in DMSO were added to reactions containing enzyme and substrate (final DMSO concentration is 1%). All experiments were conducted at room temperature using the standard reaction conditions described above. To determine the dissociation constants (Ki), reaction rates were fit by non-linear regression to the Michaelis-Menton equation for competitive inhibition. The errors in reproducing the dissociation constants are typically less than two-fold.

rats = settings: doubled from day 7 to day 14; cited from earlier work
mouse = mouse model of cyclophosphamide-induced neutropenia; cited from earlier work
DPP-4 = DPP-4 (Homo sapiens (Human), UniProt P27487); settings: cited from earlier work
Sequence of DPP-4 (P27487 39-766, species assumed): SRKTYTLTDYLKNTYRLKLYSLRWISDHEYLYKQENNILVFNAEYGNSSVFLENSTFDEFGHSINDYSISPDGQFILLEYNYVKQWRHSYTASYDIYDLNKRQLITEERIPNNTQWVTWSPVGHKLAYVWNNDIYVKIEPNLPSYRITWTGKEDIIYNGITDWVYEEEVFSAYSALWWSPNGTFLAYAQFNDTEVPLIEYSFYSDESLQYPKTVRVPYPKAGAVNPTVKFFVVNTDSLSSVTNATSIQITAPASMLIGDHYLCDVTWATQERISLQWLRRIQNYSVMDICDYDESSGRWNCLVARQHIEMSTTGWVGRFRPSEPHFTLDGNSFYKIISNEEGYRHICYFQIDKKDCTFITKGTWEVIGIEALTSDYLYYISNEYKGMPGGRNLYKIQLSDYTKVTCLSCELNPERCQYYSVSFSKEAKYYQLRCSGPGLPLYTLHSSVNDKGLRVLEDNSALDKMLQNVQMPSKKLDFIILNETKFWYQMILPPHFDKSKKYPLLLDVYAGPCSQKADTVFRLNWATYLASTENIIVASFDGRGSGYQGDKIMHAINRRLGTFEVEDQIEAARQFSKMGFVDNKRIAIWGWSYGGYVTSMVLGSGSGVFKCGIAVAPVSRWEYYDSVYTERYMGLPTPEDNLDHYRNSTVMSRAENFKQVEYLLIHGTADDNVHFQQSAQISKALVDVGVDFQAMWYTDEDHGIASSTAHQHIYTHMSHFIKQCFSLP

Sequence of dipeptidyl peptidase-IV enzyme (DPP-4) (P27487 29-766): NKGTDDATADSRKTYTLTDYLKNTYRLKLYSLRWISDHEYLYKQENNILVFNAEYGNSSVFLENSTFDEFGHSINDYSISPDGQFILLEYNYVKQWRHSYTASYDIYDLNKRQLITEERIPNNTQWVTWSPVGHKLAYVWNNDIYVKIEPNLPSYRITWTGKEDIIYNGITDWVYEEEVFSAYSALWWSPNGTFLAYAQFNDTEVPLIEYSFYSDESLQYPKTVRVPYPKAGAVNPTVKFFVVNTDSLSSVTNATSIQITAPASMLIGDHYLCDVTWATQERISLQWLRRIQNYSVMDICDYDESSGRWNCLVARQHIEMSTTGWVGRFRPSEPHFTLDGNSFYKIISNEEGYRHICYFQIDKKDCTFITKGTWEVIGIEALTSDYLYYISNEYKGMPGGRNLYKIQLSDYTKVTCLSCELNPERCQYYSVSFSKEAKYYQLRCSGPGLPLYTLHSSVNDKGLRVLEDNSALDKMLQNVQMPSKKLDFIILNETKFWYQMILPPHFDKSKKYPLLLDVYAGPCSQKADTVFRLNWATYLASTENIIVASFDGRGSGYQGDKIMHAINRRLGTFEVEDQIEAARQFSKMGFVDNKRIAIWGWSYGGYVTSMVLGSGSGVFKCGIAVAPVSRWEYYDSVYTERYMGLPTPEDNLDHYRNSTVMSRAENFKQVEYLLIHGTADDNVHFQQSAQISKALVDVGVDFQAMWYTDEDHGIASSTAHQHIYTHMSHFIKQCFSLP

| SMILES | IC50 [1] | other results |
| --- | --- | --- |
| CC(C)N1CCC(c2ccccc2)(c2ccccc2)CC1 [Prodipine, Pro-Pro-diphenyl-phosphonate] | – | cardiac allograft survival (rats): 14 day |
| CC(C)[C@H](N)C(=O)N1CCC[C@H]1B(O)O [Val-Boro-Pro] | – | hematopoiesis (mouse): stimulated hematopoiesis |
| CC[C@H](C)[C@H](N)C(=O)N1CCC[C@H]1C(=O)N[C@H](C(=O)O)[C@@H](C)CC [diprotin A] | – | degradation of GRF in plasma to GRF[3-44] (DPP-4): prevented |

More lines, main results first:

| IC50 [1] | SMILES | other results |
| --- | --- | --- |
| > 1000 nM | N[C@H]1CC(N2Cc3c[nH]nc3C2)c2ccccc2[C@@H]1c1cc(F)ccc1F (stereo partly drawn) [Example 1] | – |
| 9 nM | CS(=O)(=O)n1cc2c(n1)CN([C@@H]1C[C@H](N)[C@@H](c3cc(F)ccc3F)[C@H]3CC13)C2 (stereo partly drawn) [Example 2] | – |
| 5.4 nM | CS(=O)(=O)n1cc2c(n1)CN([C@@H]1C[C@H](N)[C@@H](c3cc(F)ccc3F)[C@@H]3C[C@@H]31)C2 [Example 3] | – |
